In patent US20260297060A1, “COMPOUNDS FOR THE DEGRADATION OF MUTANT BRAF” (C4 THERAPEUTICS, INC., priority 2023, published 2026):

Legend:
Assay type in all cases: in vivo, BALB/c nude mice
[1] = system: A375 human melanoma cancer cell derived xenografts, intracranial; experiment: Example 12 efficacy study, intracranial A375-luciferase CNS model: survival; conditions: 35 mg/kg PO/QD; vehicle median 18 days
Experimental: For the efficacy study, agents were tested in A375 human melanoma cancer cell derived xenografts (CDX). This cell line was isolated from the primary melanoma of a person and is known to have a homozygous BRAF V600E mutation. The A375 tumor cells were maintained in vitro in DMEM medium supplemented with 10% fetal bovine serum and 1% Penicillin-Streptomycin at 37° C. in an atmosphere of 5% CO2 in air. The tumor cells were routinely subcultured twice weekly. The cells growing in an exponential growth phase were harvested and counted for tumor inoculation.
For this CNS study, A375 cells with a luciferase tag for tracking tumor cell signal, were injected intracranially into 6-8-week-old female BALB/c nude mice (Zhejiang Vital River Laboratory Animal Co., LTD. Beijing, China). The mice were anaesthetized, restrained, and sterilized prior to surgery. A sagittal cut was made above the anterior parietal and occipital bone with sterilized scalpel, the skull was unrevealed and cleaned with cotton bud, in this case the anterior fontanel could be available. A 2 mm hole was created to the right of the anterior fontanel and 0.5 mm ahead of the coronal on the skull with a cranial drill. Cell suspensions in 20% Matrigel were mixed and aspirated into injector carefully to avoid bubbles and wiped to avoid extracranial tumor genesis. The needle was inserted vertically into the cranial hole and the cell mixture was slowly injected for 2 minutes and held for another minute to decrease the drainage of the cell suspension. The wound was closed, and a subcutaneous injection of 5 mg/kg Meloxicam was given to relieve the pain and continued for 3 days. The mice were monitored closely until they woke up after the surgery. During the study, the care and use of animals was conducted in accordance with the regulations of the Association for Assessment and Accreditation of Laboratory Animal Care (AAALAC). After inoculation, the animals were checked daily for morbidity and mortality. At the time of routine monitoring, the animals would be checked for any effects of tumor growth and treatments on normal behavior such as mobility, food and water consumption, body weight gain/loss, eye/hair matting, and any other abnormal effect.
The administration of the test agents began three days after inoculation. CNS tumor-bearing mice were randomly assigned to groups of 8 mice and administered Compound 26 at 10 mg/kg orally (PO) twice a day (BID), Compound 141 at 10 mg/kg PO/BID, encorafenib at 35 mg/kg once a day orally, (PO/QD), or the vehicle alone PO/BID. Measurements for the presence of the A375 luciferase (CRL-1619-LUC2, ATCC, Manassas, VA, USA) cells within the CNS were done with IVIS Lumina III machine. Images were collected twice weekly to follow the growth of the models. The tumor-bearing mice were weighed and intraperitoneally administered luciferin (Perkin Elmer Inc-122799) at a dosage of 150 mg/kg. After 10 min, mice were pre-anesthetized with the mixture gas of oxygen and isoflurane. The bioluminescence value at 15 min post luciferin injection was recorded as the final value and plotted. The endpoint for individual mice was reached when the mouse body weight decreased by 20% when compared to their starting weight.

[2] = Example 7 pharmacokinetics assay for efficacy study (plasma, liver); conditions: mouse, po, 100 mg/kg, p.o., QD × 14 days
Experimental: For efficacy study, agents were tested in the A375 human melanoma xenografts. Compound 118, Compound 156, and Compound 180 were administered to BALB/c nude mice bearing A375 xenografts from day 0 and dosed p.o. twice per day (BID). Compound 141 was administered from day 0 and dosed p.o. twice per day (BID) or dosed p.o. daily (QD) from day 1. Compound 141, Compound 118, Compound 156, and Compound 180 were dosed at 10 mg/kg for 14 days. The known BRAF inhibitor Dabrafenib was used as a positive control. Dabrafenib was administered from day 1 and dosed p.o. daily (QD) for 14 days and dosed at 100 mg/kg.
(§1) The plasma samples were collected at predetermined time points for PK analysis. The mice were euthanized at predetermined time points post the treatment. The blood samples were collected into the 1.5 mL Eppendorf tubes containing 15 μL of 0.5 M EDTA-K2. And then the anticoagulant blood samples were centrifuged at 2,500 g at 4° C. for 15 minutes. The plasma samples were separated into 2 aliquots. The 1st was used for PK analysis, and the 2nd served as backup. The samples were stored at −80° C. before bioanalysis.
(§2) Liver samples were collected at predetermined time points for PK analysis. The left lobe of the liver was dissected out and split into 2 parts. The 1st part was used for PK analysis and the 2nd part served as the backup for the study. The samples were transferred into pre-labeled tubes and quickly froze in liquid nitrogen within 2 minutes after dissection. The samples were stored at −80° C. before bioanalysis.
The harvested plasma and liver samples were processed for pharmacokinetics analysis by LC-MS/MS with a concentration range of 0.500~500 ng/mL for Dabrafenib in plasma and liver homogenate, 20.0~20,000 ng/mL for Compound 141, Compound 180 and Compound 118 in plasma and liver, 10.0~10,000 ng/mL for Compound 156 in plasma and liver.

[3] = Example 9 pharmacokinetics assay for efficacy study Part I and II (plasma, liver); conditions: mouse, po, 100 mg/kg, p.o., QD × 14 days, 6 h following last treatment, ± SEM
Experimental: For efficacy study Part I, agents were tested in the A375 human melanoma xenografts. Compound 218 and Compound 157 were administered to BALB/c nude mice bearing A375 xenografts from day 0 and dosed twice a day (BID) for 14 days. Compound 218 and Compound 157 were dosed at 10 mg/kg via p.o.. Dabrafenib was administered from day 1 daily (QD) for 14 days and dosed at 100 mg/kg via p.o..
For efficacy study Part II, agents were tested in the A375 human melanoma xenografts model. Compound 133, Compound 144 and Compound 198 were administered to BALB/c nude mice bearing A375 xenografts from day 0 and dosed twice a day (BID) for 14 days. Compound 133, Compound 144 and Compound 198 were dosed at 10 mg/kg via p.o..
as §1, §2
The harvested plasma and liver samples were processed for pharmacokinetics analysis by LC-MS/MS with a concentration range of 1.00-1,000 ng/mL for Dabrafenib in plasma and liver homogenate, 10.0-10,000 ng/mL for Compound 218, Compound 157, Compound 133, Compound 144 and Compound 198 in plasma and liver homogenate.

COC(=O)N[C@@H](C)CNc1nccc(-c2cn(C(C)C)nc2-c2cc(Cl)cc(NS(C)(=O)=O)c2F)n1 [Encorafenib, encorafenib, reference compound]
median survival [1]: 46 days

CC(C)(C)c1nc(-c2cccc(NS(=O)(=O)c3c(F)cccc3F)c2F)c(-c2ccnc(N)n2)s1 [Dabrafenib, dabrafenib, reference compound]
concentration at 6 h ([2]; liver, read-out: Concentration in Liver (mean ± SEM)): 195 ± 32.1 ng/g
concentration at 6 h ([2]; plasma, read-out: Concentration in Plasma (mean ± SEM)): 80.5 ± 17.3 ng/mL
concentration at 6 h ([3]; liver, read-out: Mean Concentration in Liver): 1240 ± 162 ng/g
concentration at 6 h ([3]; plasma, read-out: Mean Concentration in Plasma): 410 ± 58.2 ng/mL
